The test system of one experiment is SNU-16. In words: Cell SNU-16 assay. The class given is cell-based.
Another experiment has as its target FGFR2 (Homo sapiens (Human), UniProt P21802). Nature of the experiment: Biochemical FGFR2 Caliper assay.
Setting [1] is: Homo sapiens, SNU-16, SNU-16 cells.

From US11780845B2 (Relay Therapeutics, Inc., priority 2019, dated 2023) come the findings set out here.

Structures are written as SMILES. Some results are limits rather than exact numbers.

One may read the IC50 as the point on the concentration scale where inhibition reaches its midpoint. A higher IC50 goes with lower potency.

Sequence of FGFR2 (P21802 22-821): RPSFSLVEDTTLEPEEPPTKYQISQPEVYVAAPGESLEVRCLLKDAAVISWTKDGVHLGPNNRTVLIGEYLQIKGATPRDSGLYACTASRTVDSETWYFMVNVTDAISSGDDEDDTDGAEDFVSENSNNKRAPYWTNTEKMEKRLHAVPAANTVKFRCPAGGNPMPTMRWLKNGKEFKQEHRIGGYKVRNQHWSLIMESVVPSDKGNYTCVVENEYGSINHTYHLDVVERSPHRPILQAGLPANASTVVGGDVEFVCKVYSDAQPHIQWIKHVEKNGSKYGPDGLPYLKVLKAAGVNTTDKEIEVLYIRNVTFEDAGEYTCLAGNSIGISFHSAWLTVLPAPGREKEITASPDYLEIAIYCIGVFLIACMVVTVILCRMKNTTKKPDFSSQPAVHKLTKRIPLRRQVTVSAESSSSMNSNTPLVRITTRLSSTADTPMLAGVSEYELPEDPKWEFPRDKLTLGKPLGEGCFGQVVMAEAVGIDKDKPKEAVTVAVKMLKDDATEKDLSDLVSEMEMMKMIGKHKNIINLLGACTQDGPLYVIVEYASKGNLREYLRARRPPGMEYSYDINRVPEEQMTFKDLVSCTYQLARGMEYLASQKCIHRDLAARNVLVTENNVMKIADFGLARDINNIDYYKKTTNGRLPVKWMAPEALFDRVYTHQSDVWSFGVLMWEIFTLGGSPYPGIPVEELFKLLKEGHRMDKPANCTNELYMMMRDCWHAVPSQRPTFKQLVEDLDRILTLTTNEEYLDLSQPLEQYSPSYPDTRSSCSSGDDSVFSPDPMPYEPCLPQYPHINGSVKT

With `C=C(C)C(=O)Nc1ccc(-c2c(C3=CC[C@@H](C(=O)N4CCC[C@H]4C4CC4)CC3)c3c(N)ncnc3n2C)cc1` [Example 1056], the IC50 is ≤ 100 nM in the experiment on SNU-16 (setting [1]) and 250 to 1000 nM on FGFR2.
In the same order, the values of `C=C(C)C(=O)Nc1ccc(-c2c(-c3ccc(Oc4nccc(C)n4)c(F)c3)c3c(O)ncnc3n2C)cc1` [Example 1057] are ≤ 100 nM and < 100 nM.
In the same order, the values of `C=C(C)C(=O)Nc1ccc(-c2c(C3=CC[C@H](C(=O)N4CCC[C@@H]4C4CC4)CC3)c3c(N)ncnc3n2C)cc1` [Example 1058] are 1000 to 100000 nM and 1000 to 100000 nM.
Consider `C=C(C)C(=O)Nc1ccc(-c2c(C3=CC[C@H](C(=O)N4CCC[C@H]4C4CC4)CC3)c3c(N)ncnc3n2C)cc1` [Example 1059], for which the concentration for half-maximal inhibition (IC50) in the experiment on SNU-16 (setting [1]) and at FGFR2 was 1000 to 100000 nM throughout.
`C=C1CCN(c2ccc(-c3c(-c4ccc(Oc5nccc(C)n5)cc4)c4c(N)ncnc4n3C)cc2)C1=O` [Example 1060]: the IC50 with SNU-16 (setting [1]) and against FGFR2 was 1000 to 100000 nM each time.
Consider `CC1=CCN(c2ccc(-c3c(-c4ccc(Oc5nccc(C)n5)cc4)c4c(N)ncnc4n3C)cc2)C1=O` [Example 1061], for which the IC50 with SNU-16 (SNU-16 cells) was ≤ 100 nM; against FGFR2, < 100 nM.
As for `C#Cc1ncc(-c2c(-c3ccc(Oc4nccc(C)n4)cc3)c3c(N)ncnc3n2C)c(C)n1` [Example 1062], the IC50 in the experiment with SNU-16 (setting [1]) and against FGFR2 was 1000 to 100000 nM each time.
For `C=Cc1ncc(-c2c(-c3ccc(Oc4nccc(C)n4)cc3)c3c(N)ncnc3n2C)c(C)n1` [Example 1063], the results for the IC50 in the experiment on SNU-16 (setting [1]) and on FGFR2 were ≤ 100 nM and < 100 nM, respectively.
On to `C=C(C)C(=O)Nc1ccc(-c2c(-c3ccc(Oc4nccc(C)n4)cc3)c3c(N)ncnc3n2C)c(Cl)c1C` [Example 1064], for which the values for the IC50 in the experiment on SNU-16 (setting [1]) and on FGFR2 were ≤ 100 nM and < 100 nM, respectively.
The matching figures for `C=C(C)C(=O)Nc1cc(-c2c(-c3ccc(Oc4nccc(C)n4)cc3)c3c(N)ncnc3n2C)n(C)n1` [Example 1065]: 250 to 1000 nM and 250 to 1000 nM.
The matching figures for `C=C(C)C(=O)Nc1cc(C)c(-c2c(-c3ccc(Oc4nccc(C)n4)cc3)c3c(N)ncnc3n2C)cc1F` [Example 1066]: ≤ 100 nM and < 100 nM.
In the same order, the values of `C#Cc1ccc(-c2c(-c3ccc(Oc4nccc(C)n4)cc3)c3c(N)ncnc3n2C)cn1` [Example 1067] are ≤ 100 nM and < 100 nM.
With `C=C(C)C(=O)Nc1ccc(-c2c(-c3ccc(Oc4nccc(C)n4)c(F)c3)c3c(C)ncnc3n2C)cc1` [Example 1068], the half-maximal inhibitory concentration (IC50) was ≤ 100 nM in the experiment with SNU-16 (setting [1]) and < 100 nM at FGFR2.
Consider `C=C(C)C(=O)Nc1cc(Cl)c(-c2c(-c3ccc(Oc4nccc(C)n4)cc3)c3c(N)ncnc3n2C)cc1C` [Example 1069], for which the half-maximal inhibitory concentration (IC50) with SNU-16 (setting [1]) and against FGFR2 was 250 to 1000 nM each time.
In the case of `CC#Cc1ncc(-c2c(-c3ccc(Oc4nccc(C)n4)cc3)c3c(N)ncnc3n2C)cn1` [Example 1070], the IC50 in the experiment with SNU-16 (setting [1]) is ≤ 100 nM; against FGFR2, < 100 nM.
In the same order, the values of `C=C(C)C(=O)Nc1ccc(-c2c(-c3ccc(Oc4nccc(C)n4)cc3)c3c(N)ncnc3n2C)c(C)c1Cl` [Example 1071] are ≤ 100 nM and 250 to 1000 nM.
In the same order, the values of `C=C(C)C(=O)Nc1cnn(C)c1-c1c(-c2ccc(Oc3nccc(C)n3)cc2)c2c(N)ncnc2n1C` [Example 1072] are 250 to 1000 nM and 250 to 1000 nM.
In the same order, the values of `C#Cc1cc(C)c(-c2c(-c3ccc(Oc4nccc(C)n4)cc3)c3c(N)ncnc3n2C)cn1` [Example 1073] are 1000 to 100000 nM and 1000 to 100000 nM.
Regarding `C=CC(=O)Nc1ccc(-c2c(-c3ccc(C(=O)NC4CCC4)c(OC)c3)c3c(N)ncnc3n2C)cc1` [Example 1074], the concentration for half-maximal inhibition (IC50) in the experiment on SNU-16 (setting [1]) was ≤ 100 nM; on FGFR2, < 100 nM.
The matching figures for `C=C1CCN(c2ccc(-c3c(-c4ccc(Oc5nccc(C)n5)cc4)c4c(N)ncnc4n3C)cn2)C1=O` [Example 1077]: ≤ 100 nM and < 100 nM.
In the same order, the values of `CC1=CCN(c2ccc(-c3c(-c4ccc(Oc5nccc(C)n5)cc4)c4c(N)ncnc4n3C)cn2)C1=O` [Example 1078] are ≤ 100 nM and < 100 nM.
Turning to `C=C(C)C(=O)Nc1cccc(-c2[nH]c3ncnc(N)c3c2-c2ccc(C(=O)NCC3(F)COC3)cc2)c1` [Example 1079], the figures for the IC50 with SNU-16 (setting [1]) and at FGFR2 were ≤ 100 nM and < 100 nM, respectively.
In the same order, the values of `C=CC(=O)N1CC=C(c2cccc(-c3c(-c4ccc(Oc5cccc(C)n5)cc4)c4c(N)ncnc4n3C)c2)C1` [Example 1080] are 1000 to 100000 nM and 1000 to 100000 nM.
In the case of `C#Cc1ncc(-c2c(-c3ccc(Oc4nccc(C)n4)cc3)c3c(N)ncnc3n2C)cc1F` [Example 1081], the IC50 in the experiment on SNU-16 (setting [1]) and on FGFR2 was 250 to 1000 nM in each case.
In the case of `C=CC(=O)Nc1ccccc1-c1c(-c2ccc(Oc3cccc(C)n3)cc2)c2c(N)ncnc2n1C` [Example 1082], the IC50 with SNU-16 (setting [1]) was ≤ 100 nM; against FGFR2, < 100 nM.
The matching figures for `C=CC(=O)Nc1ccc(-c2c(-c3ccc(Oc4nccc(C)n4)c(C)c3)c3c(N)ncnc3n2C)c(C)c1` [Example 1083]: 1000 to 100000 nM and 250 to 1000 nM.
The matching figures for `Cc1ccnc(Oc2ccc(-c3c(-c4ccc(N5C(=O)C=CC5=O)cc4)n(C)c4ncnc(N)c34)cc2)n1` [Example 1084]: ≤ 100 nM and < 100 nM.
Turning to `C#Cc1ccc(-c2c(-c3ccc(Oc4nccc(C)n4)cc3)c3c(N)ncnc3n2C)c(C)n1` [Example 1085], the half-maximal inhibitory concentration (IC50) in the experiment on SNU-16 (setting [1]) and on FGFR2 was 1000 to 100000 nM in each case.
With `C=C(C)C(=O)Nc1cnc(-c2c(-c3ccc(Oc4cccc(C)n4)c(F)c3)c3c(N)ncnc3n2C)c(F)c1` [Example 1086], the 50% inhibitory concentration (IC50) in the experiment with SNU-16 (setting [1]) was ≤ 100 nM; against FGFR2 it was < 100 nM.
With `C=C1CCCN(c2ccc(-c3c(-c4ccc(Oc5nccc(C)n5)cc4)c4c(N)ncnc4n3C)cc2)C1=O` [Example 1087], the concentration for half-maximal inhibition (IC50) in the experiment with SNU-16 (setting [1]) is ≤ 100 nM; against FGFR2, < 100 nM.
In the case of `C=C1C(=O)N(c2ccc(-c3c(-c4ccc(Oc5nccc(C)n5)cc4)c4c(N)ncnc4n3C)cc2)CC1(C)C` [Example 1088], the 50% inhibitory concentration (IC50) in the experiment with SNU-16 (setting [1]) was 250 to 1000 nM; at FGFR2 it was 1000 to 100000 nM.
With `C=C(C)C(=O)Nc1ccc(-c2c(-c3ccc(Oc4nccc(C)n4)cc3)c3c(N)ncnc3n2C)c(Cl)c1F` [Example 1089], the concentration for half-maximal inhibition (IC50) in the experiment with SNU-16 (setting [1]) and on FGFR2 was 1000 to 100000 nM in each case.
`CC1=CCCN(c2ccc(-c3c(-c4ccc(Oc5nccc(C)n5)cc4)c4c(N)ncnc4n3C)cc2)C1=O` [Example 1090]: the 50% inhibitory concentration (IC50) with SNU-16 (setting [1]) is ≤ 100 nM; against FGFR2 it was < 100 nM.
For the molecule `C=C(C)C(=O)Nc1cc(C)c(-c2c(-c3ccc(Oc4cccc(C)n4)c(F)c3)c3c(N)ncnc3n2C)cn1` [Example 1091], the IC50 in the experiment on SNU-16 (setting [1]) and against FGFR2 was 1000 to 100000 nM each time.
For `C=CC(=O)Nc1ccc(-c2c(-c3ccc(Oc4nccc(C)n4)cc3)c3c(N)ncnc3n2C)c(C)c1` [Example 1092], the results for the half-maximal inhibitory concentration (IC50) with SNU-16 (setting [1]) and on FGFR2 were ≤ 100 nM and < 100 nM, respectively.
`C=C(C)C(=O)Nc1ccc(-c2c(-c3ccc(Oc4nccc(C)n4)c(F)c3)c3c(C)ncnc3n2C)c(Cl)c1` [Example 1093]: the 50% inhibitory concentration (IC50) in the experiment on SNU-16 (setting [1]) was ≤ 100 nM; at FGFR2, < 100 nM.
With `C=CC(=O)Nc1ccc(-c2c(-c3ccc(Oc4nccc(C)n4)c(F)c3)c3c(C)ncnc3n2C)c(Cl)c1` [Example 1094], the 50% inhibitory concentration (IC50) with SNU-16 (setting [1]) was ≤ 100 nM; against FGFR2 it was < 100 nM.
With `C=C(C)C(=O)Nc1cnc(-c2c(-c3ccc(Oc4cccc(C)n4)c(F)c3)c3c(N)ncnc3n2C)c(C)c1` [Example 1095], the figures for the half-maximal inhibitory concentration (IC50) with SNU-16 (setting [1]) and on FGFR2 were ≤ 100 nM and < 100 nM, respectively.
The matching figures for `C=C1CCN(c2ccc(-c3c(-c4ccc(Oc5nccc(C)n5)cc4)c4c(N)ncnc4n3C)c(C)c2)C1=O` [Example 1096]: ≤ 100 nM and < 100 nM.
On to `C=C(C)C(=O)Nc1cc(C)c(-c2c(-c3ccc(Oc4nccc(C)n4)cc3)c3c(N)ncnc3n2C)c(F)c1` [Example 1097], for which the IC50 in the experiment on SNU-16 (setting [1]) is ≤ 100 nM; at FGFR2, < 100 nM.
`C=CC(=O)Nc1cc(-c2c(-c3ccc(Oc4cccc(C)n4)cc3)c3c(N)ncnc3n2C)n(C)n1` [Example 1098]: the IC50 in the experiment with SNU-16 (setting [1]) is ≤ 100 nM; against FGFR2, < 100 nM.
On to `C=C(C)C(=O)Nc1ccc(-c2c(-c3ccc(Oc4cccc(C)n4)c(F)c3)c3c(N)ncnc3n2C)c(C)n1` [Example 1103], for which the results for the IC50 in the experiment on SNU-16 (setting [1]) and against FGFR2 were ≤ 100 nM and < 100 nM, respectively.
The matching figures for `C=CC(=O)Nc1ccc(-c2c(-c3ccc(Oc4nccc(C)n4)cc3)c3c(C)ncnc3n2C)c(C)c1` [Example 1104]: ≤ 100 nM and < 100 nM.
In the same order, the values of `C=CC(=O)Nc1ccc(-c2c(-c3ccc(Oc4nccc(C)n4)c(F)c3)c3c(C)ncnc3n2C)c(C)c1` [Example 1105] are ≤ 100 nM and < 100 nM.
The matching figures for `C=CC(=O)Nc1cc(-c2c(-c3ccc(Oc4nccc(C)n4)cc3)c3c(N)ncnc3n2C)n(C)n1` [Example 1108]: ≤ 100 nM and < 100 nM.
Regarding `C=C1CN(c2ccc(-c3c(-c4ccc(Oc5nccc(C)n5)cc4)c4c(N)ncnc4n3C)cc2)C1=O` [Example 1109], the IC50 was ≤ 100 nM in the experiment with SNU-16 (setting [1]) and < 100 nM at FGFR2.
Consider `C=C1CCN(c2ccc(-c3c(-c4ccc(Oc5nccc(C)n5)c(F)c4)c4c(N)ncnc4n3C)cc2)C1=O` [Example 1110], for which the results for the 50% inhibitory concentration (IC50) in the experiment with SNU-16 (setting [1]) and on FGFR2 were ≤ 100 nM and < 100 nM, respectively.
The matching figures for `C#Cc1cc(C)c(-c2c(C3=CC[C@H](C(=O)N4CCCC4)CC3)c3c(N)ncnc3n2C)cn1` [Example 1111]: ≤ 100 nM and < 100 nM.
The matching figures for `C=CC(=O)Nc1ccc(-c2c(-c3ccc(Oc4nccc(C)n4)c(F)c3)c3c(N)ncnc3n2C)cc1` [Example 1112]: ≤ 100 nM and < 100 nM.
For `C=C1C[C@@H](C)N(c2ccc(-c3c(-c4ccc(Oc5nccc(C)n5)cc4)c4c(N)ncnc4n3C)cc2)C1=O` [Example 1113], the IC50 was ≤ 100 nM with SNU-16 (setting [1]) and < 100 nM on FGFR2.
The matching figures for `CC1=C[C@@H](C)N(c2ccc(-c3c(-c4ccc(Oc5nccc(C)n5)cc4)c4c(N)ncnc4n3C)cc2)C1=O` [Example 1114]: ≤ 100 nM and 250 to 1000 nM.
